ChEMBL document CHEMBL4196011, “The lead optimization of the polyamine conjugate of flavonoid with a naphthalene motif: Synthesis and biological evaluation” (Eur J Med Chem, 2018)

Experiments:
K562 = experiment: Antiproliferative activity against human K562 cells after 48 hrs by MTT assay; format: functional, cell-based; conditions: K562, 48 h
HeLa = experiment: Antiproliferative activity against human HeLa cells after 48 hrs by MTT assay; format: functional, cell-based
HT-29 = experiment: Antiproliferative activity against human HT-29 cells after 48 hrs by MTT assay; format: functional, cell-based; conditions: HT-29, 48 h
HCT-116 = experiment: Antiproliferative activity against human HCT116 cells after 48 hrs by MTT assay; format: functional, cell-based; conditions: HCT-116, 48 h
HepG2 = experiment: Antiproliferative activity against human HepG2 cells after 48 hrs by MTT assay; format: functional, cell-based; conditions: HepG2, 48 h
Mus musculus [1] = experiment: Toxicity in Kunming mouse xenografted with […] H22 cells assessed as effect on lung weight index at 100 mg/kg, ig administered for 7 consecutive days; format: organism-based; conditions: in vivo, po
Mus musculus [2] = experiment: Toxicity in Kunming mouse xenografted with […] H22 cells assessed as effect on liver weight index at 100 mg/kg, ig administered for 7 consecutive days; format: organism-based; conditions: in vivo, po
H22 [3] = experiment: Antitumor activity against […] xenografted in Kunming mouse assessed as tumor growth inhibition at 100 mg/kg, ig for 7 consecutive days measured on day 16; format: functional; conditions: H22, po, 384 h, read-out: TGI
Mus musculus [4] = experiment: Toxicity in Kunming mouse xenografted with […] H22 cells assessed as effect on body weight at 100 mg/kg, ig administered for 7 consecutive days; format: organism-based; conditions: in vivo, po
Mus musculus [5] = experiment: Toxicity in Kunming mouse xenografted with […] H22 cells assessed as effect on heart weight index at 100 mg/kg, ig administered for 7 consecutive days; format: organism-based; conditions: in vivo, po
Mus musculus [6] = experiment: Toxicity in Kunming mouse xenografted with […] H22 cells assessed as effect on spleen weight index at 100 mg/kg, ig administered for 7 consecutive days; format: organism-based; conditions: in vivo, po
Mus musculus [7] = experiment: Toxicity in Kunming mouse xenografted with […] H22 cells assessed as effect on kidney weight index at 100 mg/kg, ig administered for 7 consecutive days; format: organism-based; conditions: in vivo, po
[8] = Toxicity in iv dosed Kunming mouse assessed as maximum tolerated dose administered for 7 consecutive days; format: organism-based; conditions: in vivo
H22 [9] = experiment: Antitumor activity against […] xenografted in Kunming mouse assessed as tumor growth inhibition at 10 mg/kg, iv for 7 consecutive days measured on day 16; format: functional; conditions: 384 h, read-out: TGI
[10] = Toxicity in Kunming mouse assessed as maximum tolerated dose administered for 7 consecutive days; format: organism-based; conditions: in vivo

SMILES | IC50 (K562) [µM] | IC50 (HeLa) [µM] | IC50 (HT-29) [µM] | IC50 (HCT-116) [µM] | IC50 (HepG2) [µM] | also measured
NCCCNCc1c(-c2ccc(-c3ccccc3)cc2)oc2ccccc2c1=O | 41.6 | 20.5 | 24.7 | 23.4 | > 50 | 
O=c1c(O)c(-c2ccc(O)c(O)c2)oc2cc(O)cc(O)c12 [QUERCETIN] |  |  |  |  |  | Activity (Mus musculus [1]): Non-Toxic; Activity (Mus musculus [2]): Non-Toxic; inhibition in vivo at 100 mg/kg (H22 [3]): 34.3 to 38.7%; Activity (Mus musculus [4]): Non-Toxic; Activity (Mus musculus [5]): Non-Toxic; Activity (Mus musculus [6]): Non-Toxic; Activity (Mus musculus [7]): Non-Toxic
COc1c(-c2ccc(-c3ccccc3)cc2)oc2c(CNCCCN)cccc2c1=O.Cl.Cl | 9.3 | 7.8 | 8.25 | 5.1 | 10.4 | MTD at 7 days [8]: 15 mg/kg; inhibition in vivo at 10 mg/kg (H22 [9]): 31.5%
Cl.Cl.NCCCNCC(=O)NCc1cccc2c(=O)cc(-c3cccc4ccccc34)oc12 |  |  |  |  |  | MTD at 7 days [10]: 20 mg/kg
O=C1c2c(O)ccc(O)c2C(=O)c2c(NCCNCCO)ccc(NCCNCCO)c21 [MITOXANTRONE] | 4.55 | 2.35 | 21.7 | 1.61 | 18.6 | 

Second part, led by results:

IC50 (K562) [µM] | IC50 (HeLa) [µM] | IC50 (HT-29) [µM] | IC50 (HCT-116) [µM] | IC50 (HepG2) [µM] | SMILES | also measured
15.8 | 13.9 | 31.4 | 14.8 | 22.2 | COc1c(-c2ccc(-c3ccccc3)cc2)oc2c(CNCCCNCCCCN)cccc2c1=O | 
18.5 | 9.63 | 21.8 | 19.3 | 14.3 | COc1ccc2cc(-c3oc4c(CNCCCCNCCCCN)cccc4c(=O)c3OC)ccc2c1Br | 
25.9 | 18.7 | 18.9 | 24.1 | 19.9 | COc1c(-c2ccc(-c3ccccc3)cc2)oc2c(CNCCN)cccc2c1=O | 
19.8 | 18.6 | 25.6 | 20.1 | 24.4 | COc1c(-c2ccc(-c3ccccc3)cc2)oc2c(CNCCCCNCCCCN)cccc2c1=O | 
19.2 | 11.2 | 23.1 | 12.8 | 15.1 | COc1ccc2cc(-c3oc4c(CNCCCN)cccc4c(=O)c3OC)ccc2c1Br | 
24.4 | 10.3 | 16.1 | 16.4 | 16.2 | COc1c(-c2ccc(-c3ccccc3)cc2)oc2c(CNCCCCN)cccc2c1=O | 
